Data taken from patent EP1247803A2, “Indolinone compounds suitable for modulation of protein kinases” (Sugen, Inc., priority 1996, dated 1998).

These molecules were tested against T1, FLK-1 receptor (Mus musculus, UniProt P35918) (assay: FLK-1 ELISA (kinase activity of the FLK-1 receptor in FLK-1/NIH3T3 cells, VEGF stimulated)).
T1 construct: expressed in transfected cells; host or cells: NIH3T3 C7#3
Type: cell-based
Procedure, shortened: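 FLK-1-expressing NIH3T3 C7#3 cells, starved overnight in 0.1% FBS medium, were treated with compounds at a 1:200 final dilution (0.5% DMSO) for 2 h at 37 °C, with VEGF stimulation. FLK-1 kinase activity was read by ELISA on anti-rabbit IgG plates using affinity-purified anti-FLK-1 antiserum.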

T1 sequence (P35918 20-1345): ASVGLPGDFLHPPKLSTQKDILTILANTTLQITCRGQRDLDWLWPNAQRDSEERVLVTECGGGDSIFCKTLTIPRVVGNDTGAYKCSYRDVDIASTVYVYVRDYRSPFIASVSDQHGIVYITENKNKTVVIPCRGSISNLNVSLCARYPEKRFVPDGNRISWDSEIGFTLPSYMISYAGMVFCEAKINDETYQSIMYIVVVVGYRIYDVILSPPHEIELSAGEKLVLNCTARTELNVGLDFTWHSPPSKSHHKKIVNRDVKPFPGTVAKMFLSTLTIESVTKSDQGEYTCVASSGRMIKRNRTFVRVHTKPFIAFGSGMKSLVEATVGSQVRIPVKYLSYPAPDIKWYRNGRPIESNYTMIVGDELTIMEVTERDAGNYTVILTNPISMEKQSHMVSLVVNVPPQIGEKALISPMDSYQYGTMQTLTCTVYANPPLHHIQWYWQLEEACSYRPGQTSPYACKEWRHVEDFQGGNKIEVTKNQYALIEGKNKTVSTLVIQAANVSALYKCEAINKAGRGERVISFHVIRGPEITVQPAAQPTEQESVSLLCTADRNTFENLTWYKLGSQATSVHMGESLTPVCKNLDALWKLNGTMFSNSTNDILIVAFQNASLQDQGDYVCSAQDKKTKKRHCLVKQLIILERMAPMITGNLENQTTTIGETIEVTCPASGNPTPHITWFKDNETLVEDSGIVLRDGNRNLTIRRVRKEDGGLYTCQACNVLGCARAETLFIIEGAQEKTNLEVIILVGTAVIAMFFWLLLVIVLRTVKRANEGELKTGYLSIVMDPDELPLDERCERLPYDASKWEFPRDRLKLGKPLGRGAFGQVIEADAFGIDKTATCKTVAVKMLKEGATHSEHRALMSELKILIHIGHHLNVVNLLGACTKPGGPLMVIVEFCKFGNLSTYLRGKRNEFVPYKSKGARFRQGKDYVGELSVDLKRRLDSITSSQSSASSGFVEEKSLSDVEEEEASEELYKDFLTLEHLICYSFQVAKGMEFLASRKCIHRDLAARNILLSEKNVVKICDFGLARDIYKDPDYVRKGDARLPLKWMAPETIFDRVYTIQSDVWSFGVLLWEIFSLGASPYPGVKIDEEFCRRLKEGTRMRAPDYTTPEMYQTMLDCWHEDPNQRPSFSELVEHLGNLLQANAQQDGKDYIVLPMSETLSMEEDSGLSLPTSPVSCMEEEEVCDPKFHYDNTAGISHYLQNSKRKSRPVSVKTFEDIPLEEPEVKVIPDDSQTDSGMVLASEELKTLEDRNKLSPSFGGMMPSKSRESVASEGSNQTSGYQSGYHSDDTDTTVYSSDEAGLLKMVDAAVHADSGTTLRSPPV

| Compound | Fik Kinase %Inhibition [%] |
| --- | --- |
| COc1c(C(C)(C)C)cc(C=C2C(=O)Nc3ccc(S(=O)(=O)Nc4ccc(C(F)(F)F)cc4)cc32)cc1C(C)(C)C [10733/E04] | 2.1 |
| Cc1c(Br)ccc2c1C(=Cc1cc(Br)cc(Br)c1O)C(=O)N2 [10734/C07] | -2.7 |
| COc1c(C)cc(C=C2C(=O)Nc3ccc(S(=O)(=O)N4CCOCC4)cc32)cc1C [10733/F06] | 19.3 |
| CC(C)(C)c1ccc(C=C2C(=O)Nc3ccc(I)cc32)cc1 [10734/B10] | 15.7 |
| CNS(=O)(=O)c1ccc2c(c1)C(=Cc1ccc(C(C)(C)C)cc1)C(=O)N2 [10734/D10] | 11.1 |
